Measured values: DBAASP
≈ marks a conversion by molar mass, not a printed value.

Legend:
Assay in all cases: ≥ marks a high value that may be exact or a test limit, other limits are often not marked, values filed in µg/mL are converted to µM
[1] = system: Micrococcus luteus ATCC 9341
[2] = system: Staphylococcus epidermidis KCTC 1917
[3] = system: Salmonella typhimurium KCTC 1926
[4] = system: Escherichia coli KCTC 1682
[5] = system: Pseudomonas aeruginosa KCTC 1637
[6] = system: Staphylococcus aureus KCTC 1621
[7] = system: Bacillus subtilis KCTC 3068
[8] = system: Escherichia coli ATCC 25922
[9] = system: Staphylococcus aureus ATCC 33591

Structure (SMILES)	MIC [1]	MIC [2]	MIC [3]	MIC [4]	MIC [5]	MIC [6]	MIC [7]	MIC [8]	MIC [9]
CC[C@H](C)[C@H](N)C(=O)N[C@@H](CC(C)C)C(=O)N1CCC[C@H]1C(=O)N[C@H](C(=O)N[C@@H](CCCCN)C(=O)N[C@H](C(=O)N1CCC[C@H]1C(=O)N[C@H](C(=O)N[C@H](C(=O)N1CCC[C@H]1C(=O)N[C@H](C(=O)N[C@@H](CCCN=C(N)N)C(=O)N[C@@H](CCCN=C(N)N)C(N)=O)C(C)C)C(C)C)C(C)C)C(C)C)C(C)C [ILPVKVPVVPVRR]	≥ 100 µM	–	–	–	–	–	–	–	–
CC[C@H](C)[C@H](N)C(=O)N[C@@H](CC(C)C)C(=O)N1CCC[C@H]1C(=O)N[C@@H](Cc1c[nH]c2ccccc12)C(=O)N[C@@H](C)C(=O)N[C@@H](Cc1c[nH]c2ccccc12)C(=O)N1CCC[C@H]1C(=O)N[C@@H](Cc1c[nH]c2ccccc12)C(=O)N[C@@H](Cc1c[nH]c2ccccc12)C(=O)N1CCC[C@H]1C(=O)N[C@@H](Cc1c[nH]c2ccccc12)C(=O)N[C@@H](CCCN=C(N)N)C(=O)N[C@@H](CCCN=C(N)N)C(N)=O [ILPWAWPWWPWRR]	0.8 µM (≈ 1.48 µg/mL)	–	–	–	–	–	–	–	–
CC[C@H](C)[C@H](N)C(=O)N[C@@H](CC(C)C)C(=O)N1CCC[C@H]1C(=O)N[C@@H](Cc1c[nH]c2ccccc12)C(=O)N[C@@H](CCCCN)C(=O)N[C@@H](CCCCN)C(=O)N1CCC[C@H]1C(=O)N[C@@H](CCCCN)C(=O)N[C@@H](CCCCN)C(=O)N1CCC[C@H]1C(=O)N[C@@H](Cc1c[nH]c2ccccc12)C(=O)N[C@@H](CCCN=C(N)N)C(=O)N[C@@H](CCCN=C(N)N)C(N)=O [ILPWKKPKKPWRR]	–	2.88 µM (≈ 5 µg/mL)	5.77 µM (≈ 9.99 µg/mL)	2.88 µM (≈ 5 µg/mL)	11.5 µM (≈ 20 µg/mL)	5.77 µM (≈ 9.99 µg/mL)	5.77 µM (≈ 9.99 µg/mL)	–	–
CC[C@H](C)[C@H](N)C(=O)N[C@@H](CC(C)C)C(=O)N1CCC[C@H]1C(=O)N[C@@H](Cc1c[nH]c2ccccc12)C(=O)N[C@@H](CCCN=C(N)N)C(=O)N[C@@H](Cc1c[nH]c2ccccc12)C(=O)N1CCC[C@H]1C(=O)N[C@@H](Cc1c[nH]c2ccccc12)C(=O)N[C@@H](Cc1c[nH]c2ccccc12)C(=O)N1CCC[C@H]1C(=O)N[C@@H](Cc1c[nH]c2ccccc12)C(=O)N[C@@H](CCCN=C(N)N)C(=O)N[C@@H](CCCN=C(N)N)C(N)=O [ILPWRWPWWPWRR]	0.4 µM (≈ 0.774 µg/mL)	–	–	–	–	–	–	–	–
CC[C@H](C)[C@H](NC(=O)[C@H](CCCN=C(N)N)NC(=O)[C@H](CC(C)C)NC(=O)[C@H](CC(C)C)NC(=O)[C@@H](N)CCCN=C(N)N)C(=O)N[C@H](C(=O)N[C@H](C(=O)N[C@H](C(=O)N[C@@H](CCCN=C(N)N)C(=O)N[C@H](C(=O)N[C@@H](CC(C)C)C(=O)N[C@@H](CCCN=C(N)N)C(N)=O)C(C)C)[C@@H](C)CC)C(C)C)C(C)C [RLLRIVVIRVLR]	–	8.3 µM (≈ 12.5 µg/mL)	4.15 µM (≈ 6.25 µg/mL)	16.6 µM (≈ 25 µg/mL)	4.15 µM (≈ 6.25 µg/mL)	8.3 µM (≈ 12.5 µg/mL)	8.3 µM (≈ 12.5 µg/mL)	–	–
NC(=O)[C@H](CCCN=C(N)N)NC(=O)[C@H](Cc1c[nH]c2ccccc12)NC(=O)[C@@H](N)CCCN=C(N)N [RWR]	–	≥ 124 µM	–	≥ 124 µM	≥ 124 µM	≥ 124 µM	–	–	–

Now from value to compound:

MIC [1]	MIC [2]	MIC [3]	MIC [4]	MIC [5]	MIC [6]	MIC [7]	MIC [8]	MIC [9]	Structure (SMILES)
–	–	–	–	–	–	–	128 µM (≈ 237 µg/mL)	≥ 256 µM	CC[C@H](C)[C@H](NC(=O)[C@@H](N)CCCCN)C(=O)N[C@@H](Cc1c[nH]c2ccccc12)C(=O)N[C@@H](Cc1ccccc1)C(=O)N[C@@H](CCC(N)=O)C(=O)N[C@@H](CC(N)=O)C(=O)N[C@@H](CCCN=C(N)N)C(=O)N[C@@H](CCCN=C(N)N)C(=O)N[C@@H](CCSC)C(=O)N[C@@H](CCCCN)C(=O)N[C@@H](Cc1c[nH]c2ccccc12)C(=O)N[C@@H](CCCCN)C(=O)N[C@@H](CCCCN)C(N)=O [KIWFQNRRMKWKK]
–	2 µM (≈ 4.04 µg/mL)	2 µM (≈ 4.04 µg/mL)	2 µM (≈ 4.04 µg/mL)	4 µM (≈ 8.09 µg/mL)	2 µM (≈ 4.04 µg/mL)	2 µM (≈ 4.04 µg/mL)	–	–	C[C@@H](O)[C@H](NC(=O)[C@H](CCCCN)NC(=O)[C@H](Cc1c[nH]c2ccccc12)NC(=O)[C@H](Cc1c[nH]c2ccccc12)NC(=O)[C@@H](NC(=O)[C@H](CCCCN)NC(=O)[C@@H](N)CCCCN)[C@@H](C)O)C(=O)N[C@@H](Cc1c[nH]c2ccccc12)C(=O)N[C@@H](Cc1c[nH]c2ccccc12)C(=O)N[C@H](C(=O)N[C@@H](CCCCN)C(=O)N[C@@H](Cc1c[nH]c2ccccc12)C(=O)N[C@@H](CCCCN)C(=O)N[C@@H](CCCCN)C(=O)O)[C@@H](C)O [KKTWWKTWWTKWKK]
